Results: ChEMBL document CHEMBL1128323, “Antifungal agents. 9. 3-Aryl-4-[alpha-(1H-imidazol-1-yl)arylmethyl]pyrroles: a new class of potent anti-Candida agents” (1995)
In brackets after ≈: the same amount, converted by molar mass.

Experiments:
Format in all cases: functional
Candida [1] = assay: Inhibitory activity against Candida. species. (40 clinical isolates), determined at pH-5.8
Candida albicans [2] = assay: Inhibitory activity against the Candida albicans (40 clinical isolates), determined at pH-5.8
Candida albicans [3] = assay: Inhibitory activity against the Candida albicans (40 clinical isolates), determined at pH-7.2
Candida albicans [4] = assay: Resistance against Candida. albicans (40 clinical isolates) at 256 ug/mL (pH=7.2), activity is expressed as R%.
Candida [5] = assay: 90% inhibitory activity against Candida. species (40 clinical isolates) determined at pH-7.2
Candida albicans [6] = assay: Percent resistance against Candida albicans (40 clinical isolates) at 256 micro g/mL (pH=5.8), activity is expressed as R%.
Candida [7] = assay: Percent resistance against all Candida. species (40 clinical isolates) at 256 micro g/mL (pH=7.2), activity is expressed as R%.
Candida [8] = assay: 50% inhibitory activity against the Candida. species (40 clinical isolates) was determined at pH-7.2
Candida albicans [9] = assay: Inhibitory activity against Candida albicans (40 clinical isolates), determined at pH-7.2
Candida [10] = assay: Resistance against all Candida. species (40 clinical isolates) at 256 micro g/mL (pH=5.8). Activity is expressed as R%.
Candida [11] = assay: Inhibitory activity against Candida. species (40 clinical isolates), determined at pH-5.8
Candida [12] = assay: Inhibitory activity against Candida. species. (40 clinical isolates), determined at pH-7.2
Candida albicans [13] = assay: 50% inhibitory activity against Candida albicans (40 clinical isolates) determined at pH-7.2; settings: Candida albicans; read-out: MIC50
Candida albicans [14] = assay: Inhibitory activity against Candida albicans (40 clinical isolates), determined at pH-5.8
Candida albicans [15] = assay: 50% inhibitory activity against Candida albicans (40 clinical isolates) determined at pH-5.8

Structure (SMILES)	MIC (Candida [1])	MIC90 (Candida albicans [2])	MIC90 (Candida albicans [3])	R (Candida albicans [4])	MIC90 (Candida [5])	R (Candida albicans [6])	R (Candida [7])	MIC50 (Candida [8])	MIC (Candida albicans [9])	R (Candida [10])	MIC50 (Candida [11])	MIC90 (Candida [11])	MIC (Candida [12])	MIC50 (Candida albicans [13])	MIC (Candida albicans [14])	MIC50 (Candida albicans [15])
Clc1ccc(C(c2c[nH]cc2-c2ccccc2)n2ccnc2)cc1Cl (stereo not drawn)	114 µg/mL (≈ 311 µM)	64 µg/mL (≈ 174 µM)	64 µg/mL (≈ 174 µM)	0%	256 µg/mL (≈ 695 µM)	0%	20%	128 µg/mL (≈ 348 µM)	41.9 µg/mL (≈ 114 µM)	0%	64 µg/mL (≈ 174 µM)	64 µg/mL (≈ 174 µM)	191 µg/mL (≈ 519 µM)	16 µg/mL (≈ 43.4 µM)	38.6 µg/mL (≈ 105 µM)	16 µg/mL (≈ 43.4 µM)
Cc1ccc(C(c2c[nH]cc2-c2ccc(Cl)cc2Cl)n2ccnc2)cc1 (stereo not drawn)	16.4 µg/mL (≈ 42.9 µM)	16 µg/mL (≈ 41.9 µM)	16 µg/mL (≈ 41.9 µM)	0%	> 256 µg/mL	0%	50%	256 µg/mL (≈ 670 µM)	13.1 µg/mL (≈ 34.3 µM)	0%	16 µg/mL (≈ 41.9 µM)	32 µg/mL (≈ 83.7 µM)	> 224 µg/mL	8 µg/mL (≈ 20.9 µM)	7.9 µg/mL (≈ 20.7 µM)	8 µg/mL (≈ 20.9 µM)
Clc1ccccc1-c1c[nH]cc1C(c1ccc(-n2cccc2)cc1)n1ccnc1 (stereo not drawn)	30.2 µg/mL (≈ 75.7 µM)	16 µg/mL (≈ 40.1 µM)	64 µg/mL (≈ 160 µM)	0%	64 µg/mL (≈ 160 µM)	0%	0%	16 µg/mL (≈ 40.1 µM)	25.3 µg/mL (≈ 63.4 µM)	0%	32 µg/mL (≈ 80.2 µM)	32 µg/mL (≈ 80.2 µM)	24.1 µg/mL (≈ 60.4 µM)	8 µg/mL (≈ 20.1 µM)	20.5 µg/mL (≈ 51.4 µM)	8 µg/mL (≈ 20.1 µM)
c1ccc(-c2c[nH]cc2C(c2ccc(-n3cccc3)cc2)n2ccnc2)cc1 (stereo not drawn)	40 µg/mL (≈ 110 µM)	32 µg/mL (≈ 87.8 µM)	32 µg/mL (≈ 87.8 µM)	0%	64 µg/mL (≈ 176 µM)	0%	0%	32 µg/mL (≈ 87.8 µM)	37.3 µg/mL (≈ 102 µM)	0%	32 µg/mL (≈ 87.8 µM)	64 µg/mL (≈ 176 µM)	42.1 µg/mL (≈ 116 µM)	16 µg/mL (≈ 43.9 µM)	30.4 µg/mL (≈ 83.4 µM)	16 µg/mL (≈ 43.9 µM)
O=[N+]([O-])c1ccc(C(c2c[nH]cc2-c2ccc(Cl)c(Cl)c2)n2ccnc2)cc1 (stereo not drawn)	> 256 µg/mL	> 256 µg/mL	> 256 µg/mL	50%	> 256 µg/mL	50%	100%	> 256 µg/mL	> 312 µg/mL	100%	> 256 µg/mL	> 256 µg/mL	> 256 µg/mL	256 µg/mL (≈ 619 µM)	> 283 µg/mL	256 µg/mL (≈ 619 µM)
Clc1ccc(-c2c[nH]cc2C(c2ccc(-n3cccc3)cc2)n2ccnc2)cc1 (stereo not drawn)	> 156 µg/mL	256 µg/mL (≈ 642 µM)	256 µg/mL (≈ 642 µM)	20%	256 µg/mL (≈ 642 µM)	16%	50%	256 µg/mL (≈ 642 µM)	> 121 µg/mL	40%	64 µg/mL (≈ 160 µM)	> 256 µg/mL	> 229 µg/mL	64 µg/mL (≈ 160 µM)	> 119 µg/mL	64 µg/mL (≈ 160 µM)
Nc1ccc(C(c2c[nH]cc2-c2ccc(Cl)cc2)n2ccnc2)cc1 (stereo not drawn)	82.5 µg/mL (≈ 237 µM)	128 µg/mL (≈ 367 µM)	128 µg/mL (≈ 367 µM)	0%	128 µg/mL (≈ 367 µM)	0%	0%	128 µg/mL (≈ 367 µM)	98.2 µg/mL (≈ 282 µM)	0%	82.5 µg/mL (≈ 237 µM)	82.5 µg/mL (≈ 237 µM)	184 µg/mL (≈ 527 µM)	64 µg/mL (≈ 183 µM)	42.8 µg/mL (≈ 123 µM)	32 µg/mL (≈ 91.7 µM)
Fc1ccc(C(c2c[nH]cc2-c2ccc(Cl)cc2Cl)n2ccnc2)cc1 (stereo not drawn)	21.5 µg/mL (≈ 55.7 µM)	32 µg/mL (≈ 82.8 µM)	32 µg/mL (≈ 82.8 µM)	0%	32 µg/mL (≈ 82.8 µM)	0%	0%	16 µg/mL (≈ 41.4 µM)	10.4 µg/mL (≈ 26.9 µM)	0%	16 µg/mL (≈ 41.4 µM)	32 µg/mL (≈ 82.8 µM)	20.9 µg/mL (≈ 54.1 µM)	8 µg/mL (≈ 20.7 µM)	7.8 µg/mL (≈ 20.2 µM)	2 µg/mL (≈ 5.18 µM)
